Test results as given in PMC6680768, “Synthesis and Preclinical Evaluation of Radio-Iodinated GRPR/PSMA Bispecific Heterodimers for the Theranostics Application in Prostate Cancer” (Pharmaceutics, 2019).

How the values were obtained:
[1] = molecular target: T1, PSMA (Homo sapiens, UniProt Q04609); test: Binding inhibition of [^111In]In-PSMA-617 on PC-3pip cells, GRPRs blocked (IC50); details: competitor 1 nM [^111In]In-PSMA-617, GRPRs blocked with 200 nM RM26, 4 °C, 5 h, non-iodinated heterodimers
T1 construct: host or cells: PC-3pip (PC-3 cells transfected with PSMA)
T1 sequence (Q04609 whole entry): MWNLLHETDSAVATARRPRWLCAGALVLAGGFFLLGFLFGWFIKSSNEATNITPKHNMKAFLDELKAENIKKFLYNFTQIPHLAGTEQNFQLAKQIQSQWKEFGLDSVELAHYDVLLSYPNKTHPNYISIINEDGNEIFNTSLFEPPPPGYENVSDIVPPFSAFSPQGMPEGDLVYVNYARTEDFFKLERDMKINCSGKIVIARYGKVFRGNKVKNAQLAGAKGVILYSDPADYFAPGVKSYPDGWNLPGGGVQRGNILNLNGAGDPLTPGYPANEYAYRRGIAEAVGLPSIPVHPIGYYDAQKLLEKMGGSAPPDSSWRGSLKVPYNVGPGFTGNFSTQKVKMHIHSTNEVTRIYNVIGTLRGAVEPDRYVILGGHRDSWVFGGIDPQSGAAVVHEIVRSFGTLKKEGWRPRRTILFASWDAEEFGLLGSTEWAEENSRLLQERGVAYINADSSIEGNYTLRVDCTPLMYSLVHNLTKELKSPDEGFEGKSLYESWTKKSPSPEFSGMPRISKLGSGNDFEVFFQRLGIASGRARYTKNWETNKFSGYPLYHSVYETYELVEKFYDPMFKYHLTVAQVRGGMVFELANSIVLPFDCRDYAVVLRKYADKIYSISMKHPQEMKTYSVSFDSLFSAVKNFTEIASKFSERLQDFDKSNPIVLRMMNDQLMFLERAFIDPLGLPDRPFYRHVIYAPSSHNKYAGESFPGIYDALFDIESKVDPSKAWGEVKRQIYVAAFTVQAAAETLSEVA
Experimental: Cells were incubated at 4 °C for 5 h. After incubation, the cells were detached with trypsin–EDTA and the activity in cell samples was measured. Data were plotted using nonlinear regression.

[2] = format: physicochemical
Experimental: The octanol–water distribution coefficient was determined as described earlier. Briefly, 500 µL of Milli-Q water and 500 µL of n-octanol were added in an Eppendorf tube containing radiolabeled peptide. The tube was vortexed for 2 min and centrifuged for 20 s. Fractions of each phase were collected and their activity was measured.

[3] = test system: PC-3pip cells (GRPR and PSMA positive); test: Cellular retention of activity after interrupted incubation, PC-3pip cells; format: cell-based; details: 24 h
Experimental: (§1) The cellular retention of activity after interrupted incubation was carried out on PC-3, LNCaP, and PC-3pip cells. A concentration of 20 nM of each radiolabeled heterodimer was added to the cells and the dishes were incubated at 4 °C for 2 h. The media was aspired, and the cells were further incubated with complete media at 37 °C. At predetermined time points, the media was collected, and the cells were detached with trypsin–EDTA and collected. The radioactivity content of each collected fraction was measured.

[4] = test system: PSMA; details: LNCaP xenografts, 1 h pi, p < 0.05
Experimental: All in vivo experiments were carried out on BALB/c nu/nu mice provided by Scanbur A/S (Sweden). PC-3, LNCaP, and PC-3pip tumor xenografts were established by implanting 5 × 10^6 cells/mouse for PC-3 and PC-3pip xenografts, and 10 × 10^6 cells for LNCaP xenografts. The in vivo experiments were carried out when palpable tumors were observed. Animal weight at the moment of experiment was 20 ± 2 g, 21 ± 3 g, 14.5 ± 0.8 g, and average tumor size was 0.2 ± 0.1 g, 0.05 ± 0.04 g, 0.4 ± 0.1 g for PC-3, LNCaP, and PC-3pip models, respectively.
In vivo specificity for the radiolabeled heterodimers was tested on mice bearing PC-3 or LNCaP xenografts. The mice were injected with 40 pmol (30 KBq) of the radiolabeled heterodimer in 1% bovine serum albumin (BSA) in PBS. For the mice in the blocked group, 7.5 nmol of either unlabeled NOTA-PEG4-RM26 or PSMA-617 was added to the radiolabeled heterodimer in order to block GRPR in PC-3 xenografted mice or PSMA in LNCaP xenografted mice, respectively. Animals were sacrificed by heart punctures exsanguination after pre-injection of Ketalar–Rompun solution (10 mg/mL Ketalar and 1 mg/mL Rompun; 20 μL solution/gram of body weight). The mice were dissected 1 h post-injection (pi) and the organs of interest were collected. The activity uptake in organs was measured.

[5] = test system: PC-3 cells (GRPR positive); test: Cellular retention of activity after interrupted incubation, PC-3 cells; format: cell-based; details: 24 h of incubation, normalized to 0 h
Experimental: as §1

[6] = test system: LNCaP cells (PSMA positive); test: Cellular retention of activity after interrupted incubation, LNCaP cells; format: cell-based; details: 24 h
Experimental: as §1

[7] = test system: PC-3pip (GRPR and PSMA positive) xenografts; parameters: species or system Balb/c nu/nu mice; details: mouse, in vivo
Experimental: (§2) The radioactivity uptake in organs was studied 1, 3, 24, and 72 h pi as described above.

[8] = parameters: species or system Balb/c nu/nu mice; details: mouse, in vivo
Experimental: as §2

[9] = molecular target: T1, PSMA; parameters: method as in PMID 25883127; details: cited from earlier work

| IC50 [1] | logD [2] | Structure (SMILES) | decrease of cell-associated activity [3] | difference in tumor activity uptake between non-blocked and blocked groups (in vivo specificity to PSMA) [4] | also measured |
| --- | --- | --- | --- | --- | --- |
| 0.098 ± 0.013 µM | – | CC(C)C[C@H](NC(=O)C[C@H](O)[C@H](CC(C)C)NC(=O)[C@H](Cc1c[nH]cn1)NC(=O)CNC(=O)[C@@H](NC(=O)[C@H](C)NC(=O)[C@H](Cc1c[nH]c2ccccc12)NC(=O)[C@H](CCC(N)=O)NC(=O)[C@@H](Cc1ccccc1)NC(=O)CCOCCOCCNC(=O)[C@H](Cc1ccc(O)cc1)n1cc(COCCOCCC(=O)NC[C@H]2CC[C@H](C(=O)N[C@@H](Cc3ccc4ccccc4c3)C(=O)NCCCC[C@H](NC(=O)N[C@@H](CCC(=O)O)C(=O)O)C(=O)O)CC2)nn1)C(C)C)C(N)=O [BO530] | – | – | – |
| – | 1.07 | CC(C)C[C@H](NC(=O)C[C@H](O)[C@H](CC(C)C)NC(=O)[C@H](Cc1c[nH]cn1)NC(=O)CNC(=O)[C@@H](NC(=O)[C@H](C)NC(=O)[C@H](Cc1c[nH]c2ccccc12)NC(=O)[C@H](CCC(N)=O)NC(=O)[C@@H](Cc1ccccc1)NC(=O)CCOCCOCCNC(=O)[C@H](Cc1ccc(O)c(I)c1)n1cc(CCCCCCCC(=O)NC[C@H]2CC[C@H](C(=O)N[C@@H](Cc3ccc4ccccc4c3)C(=O)NCCCC[C@H](NC(=O)N[C@@H](CCC(=O)O)C(=O)O)C(=O)O)CC2)nn1)C(C)C)C(N)=O [[^125I]I-BO535] | 35% | failed to demonstrate in vivo specificity | – |
| 0.1 ± 0.01 µM | – | CC(C)C[C@H](NC(=O)C[C@H](O)[C@H](CC(C)C)NC(=O)[C@H](Cc1c[nH]cn1)NC(=O)CNC(=O)[C@@H](NC(=O)[C@H](C)NC(=O)[C@H](Cc1c[nH]c2ccccc12)NC(=O)[C@H](CCC(N)=O)NC(=O)[C@@H](Cc1ccccc1)NC(=O)CCOCCOCCNC(=O)[C@H](Cc1ccc(O)cc1)n1cc(CCCCCCCC(=O)NC[C@H]2CC[C@H](C(=O)N[C@@H](Cc3ccc4ccccc4c3)C(=O)NCCCC[C@H](NC(=O)N[C@@H](CCC(=O)O)C(=O)O)C(=O)O)CC2)nn1)C(C)C)C(N)=O [BO535] | – | – | – |
| – | -0.52 | CC(C)C[C@H](NC(=O)C[C@H](O)[C@H](CC(C)C)NC(=O)[C@H](Cc1c[nH]cn1)NC(=O)CNC(=O)[C@@H](NC(=O)[C@H](C)NC(=O)[C@H](Cc1c[nH]c2ccccc12)NC(=O)[C@H](CCC(N)=O)NC(=O)[C@@H](Cc1ccccc1)NC(=O)CCOCCOCCNC(=O)[C@H](Cc1ccc(O)c(I)c1)n1cc(COCCOCCC(=O)NC[C@H]2CC[C@H](C(=O)N[C@@H](Cc3ccc4ccccc4c3)C(=O)NCCCC[C@H](NC(=O)N[C@@H](CCC(=O)O)C(=O)O)C(=O)O)CC2)nn1)C(C)C)C(N)=O [[^125I]I-BO530] | 20% | demonstrated significant difference | cell-associated activity [5]: 14% ± 2%; cell associated activity from initial [6]: 60%; area under the curve (AUC), kidneys versus tumors [7]: more than two-fold higher; area under the curve (AUC), tumor versus blood [7]: 10 fold; tissue uptake at 24 h [8]: < 1 %ID/g |
| – | – | O=C([O-])CN1CCN(CC(=O)[O-])CCN(CC(=O)NCC2CCC(C(=O)N[C@@H](Cc3ccc4ccccc4c3)C(=O)NCCCC[C@H](NC(=O)N[C@@H](CCC(=O)O)C(=O)O)C(=O)O)CC2)CCN(CC(=O)[O-])CC1.[177Lu+3] (some centres unmarked) [^177Lu-PSMA-617] | – | – | initial uptake in kidneys versus tumors [9]: at least 10 fold |
